{
  "source": "paper PMC4816213",
  "about": "(Bioorganic & medicinal chemistry letters, 2015)",
  "key": {"Sigma2": {"molecular_target": "Sigma2", "test": "radioligand competition binding"}, "PBR": {"molecular_target": "PBR", "test": "radioligand competition binding"}, "NOP": {"molecular_target": "NOP (Homo sapiens, UniProt P41146)", "sequence (P41146 whole entry)": "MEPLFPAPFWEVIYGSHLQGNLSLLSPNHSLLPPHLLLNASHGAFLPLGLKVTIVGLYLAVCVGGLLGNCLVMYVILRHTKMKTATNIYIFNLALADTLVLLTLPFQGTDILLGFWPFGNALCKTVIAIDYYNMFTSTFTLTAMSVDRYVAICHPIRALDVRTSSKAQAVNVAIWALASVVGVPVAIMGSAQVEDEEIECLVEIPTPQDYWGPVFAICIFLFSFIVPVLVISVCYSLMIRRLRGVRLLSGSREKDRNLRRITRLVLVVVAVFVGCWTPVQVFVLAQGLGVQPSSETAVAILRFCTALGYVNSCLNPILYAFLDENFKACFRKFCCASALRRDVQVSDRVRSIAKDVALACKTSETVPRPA", "test": "biochemical"}, "β3": {"molecular_target": "β3 (Homo sapiens, UniProt P13945)", "sequence (P13945 whole entry)": "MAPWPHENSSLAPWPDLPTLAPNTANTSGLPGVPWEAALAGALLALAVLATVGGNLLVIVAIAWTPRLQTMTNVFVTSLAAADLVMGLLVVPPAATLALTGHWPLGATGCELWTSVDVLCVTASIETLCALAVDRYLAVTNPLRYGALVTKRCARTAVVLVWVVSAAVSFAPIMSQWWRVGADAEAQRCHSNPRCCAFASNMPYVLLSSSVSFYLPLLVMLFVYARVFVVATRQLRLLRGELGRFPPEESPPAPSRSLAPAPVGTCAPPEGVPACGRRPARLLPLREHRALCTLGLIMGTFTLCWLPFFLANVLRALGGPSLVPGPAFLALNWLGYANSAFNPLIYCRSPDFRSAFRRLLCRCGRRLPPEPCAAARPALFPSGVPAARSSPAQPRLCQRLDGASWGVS", "test": "biochemical"}, "DOR": {"molecular_target": "DOR (Homo sapiens, UniProt P41143)", "sequence (P41143 whole entry)": "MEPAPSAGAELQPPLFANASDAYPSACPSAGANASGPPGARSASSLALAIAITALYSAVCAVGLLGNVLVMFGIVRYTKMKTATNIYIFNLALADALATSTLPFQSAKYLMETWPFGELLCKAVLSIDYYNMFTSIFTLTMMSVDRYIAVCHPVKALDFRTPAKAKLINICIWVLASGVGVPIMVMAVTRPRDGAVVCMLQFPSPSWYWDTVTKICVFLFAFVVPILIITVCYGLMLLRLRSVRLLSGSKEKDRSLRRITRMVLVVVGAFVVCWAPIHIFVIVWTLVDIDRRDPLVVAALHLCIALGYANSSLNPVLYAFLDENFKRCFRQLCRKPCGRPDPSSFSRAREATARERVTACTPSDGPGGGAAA", "test": "biochemical"}, "HERG": {"molecular_target": "HERG (Homo sapiens, UniProt Q12809)", "sequence (Q12809 whole entry)": "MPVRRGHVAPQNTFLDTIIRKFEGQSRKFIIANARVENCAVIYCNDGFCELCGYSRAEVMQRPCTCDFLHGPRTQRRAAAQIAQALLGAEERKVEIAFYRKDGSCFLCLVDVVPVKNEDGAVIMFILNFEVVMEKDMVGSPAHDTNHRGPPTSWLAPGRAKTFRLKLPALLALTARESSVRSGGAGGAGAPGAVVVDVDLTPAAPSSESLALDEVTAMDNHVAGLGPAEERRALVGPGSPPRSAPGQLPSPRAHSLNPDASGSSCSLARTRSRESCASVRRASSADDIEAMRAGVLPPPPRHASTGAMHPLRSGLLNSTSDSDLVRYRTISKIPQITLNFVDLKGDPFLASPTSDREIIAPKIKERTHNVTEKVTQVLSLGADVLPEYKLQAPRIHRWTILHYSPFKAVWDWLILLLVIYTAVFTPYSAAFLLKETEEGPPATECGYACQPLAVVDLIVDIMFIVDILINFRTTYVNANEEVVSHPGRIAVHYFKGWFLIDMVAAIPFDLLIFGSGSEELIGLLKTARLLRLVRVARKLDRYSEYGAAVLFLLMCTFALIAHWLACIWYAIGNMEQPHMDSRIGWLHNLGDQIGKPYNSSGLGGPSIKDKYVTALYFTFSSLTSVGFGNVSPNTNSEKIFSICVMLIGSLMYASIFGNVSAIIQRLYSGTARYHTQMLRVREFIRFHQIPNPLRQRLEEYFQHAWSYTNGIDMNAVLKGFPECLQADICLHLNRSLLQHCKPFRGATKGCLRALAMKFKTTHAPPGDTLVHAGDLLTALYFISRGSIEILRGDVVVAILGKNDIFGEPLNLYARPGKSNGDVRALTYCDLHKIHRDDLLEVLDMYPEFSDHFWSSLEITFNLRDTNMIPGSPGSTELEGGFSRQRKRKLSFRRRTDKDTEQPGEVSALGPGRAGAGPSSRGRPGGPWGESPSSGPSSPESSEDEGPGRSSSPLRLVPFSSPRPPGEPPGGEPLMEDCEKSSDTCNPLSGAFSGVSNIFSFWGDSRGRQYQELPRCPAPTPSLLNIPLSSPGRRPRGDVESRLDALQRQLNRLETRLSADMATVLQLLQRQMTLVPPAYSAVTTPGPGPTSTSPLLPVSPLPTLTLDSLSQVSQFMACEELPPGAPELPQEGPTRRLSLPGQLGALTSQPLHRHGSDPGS", "test": "biochemical"}, "D5": {"molecular_target": "D5 (Homo sapiens, UniProt P21918)", "sequence (P21918 whole entry)": "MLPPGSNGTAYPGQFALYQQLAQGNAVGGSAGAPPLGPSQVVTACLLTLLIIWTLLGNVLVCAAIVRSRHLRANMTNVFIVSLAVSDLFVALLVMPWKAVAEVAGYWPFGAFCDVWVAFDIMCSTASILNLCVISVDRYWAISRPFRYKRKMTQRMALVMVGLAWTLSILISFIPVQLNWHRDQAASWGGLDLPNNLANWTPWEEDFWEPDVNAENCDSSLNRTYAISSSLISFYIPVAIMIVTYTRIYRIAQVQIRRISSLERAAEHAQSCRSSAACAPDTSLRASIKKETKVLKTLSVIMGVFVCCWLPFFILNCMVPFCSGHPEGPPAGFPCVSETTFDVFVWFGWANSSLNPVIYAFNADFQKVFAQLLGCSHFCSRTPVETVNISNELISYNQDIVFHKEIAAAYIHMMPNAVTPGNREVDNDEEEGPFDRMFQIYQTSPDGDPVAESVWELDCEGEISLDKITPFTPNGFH", "test": "biochemical"}, "DAT": {"molecular_target": "DAT (Homo sapiens, UniProt Q01959)", "sequence (Q01959 whole entry)": "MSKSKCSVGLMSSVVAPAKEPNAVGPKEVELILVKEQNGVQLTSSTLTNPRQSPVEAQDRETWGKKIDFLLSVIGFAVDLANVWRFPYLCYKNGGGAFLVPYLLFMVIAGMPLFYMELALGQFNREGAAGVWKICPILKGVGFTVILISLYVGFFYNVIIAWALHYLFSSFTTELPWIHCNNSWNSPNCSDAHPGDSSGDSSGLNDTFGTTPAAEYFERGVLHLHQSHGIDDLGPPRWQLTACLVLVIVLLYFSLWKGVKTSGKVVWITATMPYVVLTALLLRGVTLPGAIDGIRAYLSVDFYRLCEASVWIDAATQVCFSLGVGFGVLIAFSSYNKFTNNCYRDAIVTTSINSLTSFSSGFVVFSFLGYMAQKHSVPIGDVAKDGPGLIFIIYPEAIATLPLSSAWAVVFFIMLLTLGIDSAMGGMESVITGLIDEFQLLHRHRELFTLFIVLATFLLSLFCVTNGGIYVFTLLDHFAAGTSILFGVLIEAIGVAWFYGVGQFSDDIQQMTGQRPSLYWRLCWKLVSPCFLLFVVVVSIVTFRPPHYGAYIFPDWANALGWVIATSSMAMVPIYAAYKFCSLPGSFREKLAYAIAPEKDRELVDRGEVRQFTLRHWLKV", "test": "biochemical"}, "β1": {"molecular_target": "β1 (Homo sapiens, UniProt P08588)", "sequence (P08588 whole entry)": "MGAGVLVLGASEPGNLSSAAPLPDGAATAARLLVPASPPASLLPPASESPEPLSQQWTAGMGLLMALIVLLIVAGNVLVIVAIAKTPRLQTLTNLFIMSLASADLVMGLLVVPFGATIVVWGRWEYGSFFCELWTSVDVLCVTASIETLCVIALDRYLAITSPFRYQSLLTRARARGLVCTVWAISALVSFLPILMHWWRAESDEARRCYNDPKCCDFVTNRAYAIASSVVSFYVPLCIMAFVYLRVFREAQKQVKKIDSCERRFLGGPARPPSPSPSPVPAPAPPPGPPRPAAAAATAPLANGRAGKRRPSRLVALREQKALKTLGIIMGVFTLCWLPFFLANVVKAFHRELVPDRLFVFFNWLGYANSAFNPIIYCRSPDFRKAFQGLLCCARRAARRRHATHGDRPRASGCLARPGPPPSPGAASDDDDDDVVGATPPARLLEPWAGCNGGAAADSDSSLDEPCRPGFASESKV", "test": "biochemical"}, "Sigma1": {"molecular_target": "Sigma1", "test": "radioligand competition binding"}},
  "data": [
    {"smiles": "COc1cc(CCNCc2ccccc2OCCF)c(OC)cc1Br", "note": "[compound 1, 2-(4-bromo-2,5-dimethoxyphenyl)-N-(2-(2-fluoroethoxy)benzyl)ethanamine]", "values": [
      {"measurement": "Ki", "setting": "Sigma2", "result": 0.051, "unit": "µM"},
      {"measurement": "Ki", "setting": "PBR", "result": 0.876, "unit": "µM"},
      {"measurement": "Ki", "setting": "NOP", "result": "> 10", "unit": "µM"},
      {"measurement": "Ki", "setting": "β3", "result": "> 10", "unit": "µM"},
      {"measurement": "Ki", "setting": "DOR", "result": "> 10", "unit": "µM"},
      {"measurement": "Ki", "setting": "HERG", "result": "> 10", "unit": "µM"},
      {"measurement": "Ki", "setting": "D5", "result": "> 10", "unit": "µM"},
      {"measurement": "Ki", "setting": "DAT", "result": "> 10", "unit": "µM"},
      {"measurement": "Ki", "setting": "β1", "result": "> 10", "unit": "µM"},
      {"measurement": "Ki", "setting": "Sigma1", "result": 0.499, "unit": "µM"}
    ]}
  ]
}
